Experimental data reported in US20100047227A1, “NOVEL ANTICANCER CATHEPSIN FORMULATIONS AND ANTICANCER AGENT FOR USE IN COMBINED ANTICANCER THERAPY” (priority 2006, published 2010).

How the values were obtained:
[1] = test system: FasL; test: ELISA of FasL in culture supernatant of ALVA-41 cells; assay type: cell-based, human; conditions: ALVA-41 cells treated with cathepsin E 100 μg/ml, 20 hours
Procedure: ALVA-41 cells (1×10^6 cells per a 6-cm dish) were incubated together with cathepsin E (100 μg/ml) in a non-serum culture medium Opti-MEM at 37° C. for 20 hours. The resulting culture supernatant was measured for amounts of TRAIL, FasL and TNF-α with ELSA kit in a manner as will be described briefly. A sample and a standard product (each 100 μl) were added to a microtiter plate immobilized with a monoclonal antibody to the corresponding member of the TNF family and incubated at room temperature for 2 hours. Then, the wells of the microtiter plate were washed four times with a washing buffer and 100 μl of biotin-conjugated monoclonal antibody was added to each wells of the plate, following by incubation at room temperature for 1 hour and washing the wells of the plate completely. Then, they were incubated together with 100 μl of streptoavidin-conjugated horseradish peroxidase at room temperature for 30 minutes and washed four times with a washing buffer. […] After an addition of a reaction terminating solution, the wells were measured at 450 nm with microreader.
In this experiment, the ALVA-41 cells were treated with cathepsin E (100 μg/ml) or physiological saline at 37° C. and pH 7.4 for 20 hours and measured for the amounts of TNF-α, FasL and TRAIL in the culture supernatant by ELSA. […] Apoptosis of the ALVA-41 cells was measured using the culture supernatant after immunoprecipitation. […]

[2] = test system: human prostate cancer ALVA-41 cells; test: survival rate of cells (Cell Counting Kit-8), ALVA-41 cells; assay type: cell-based; conditions: ALVA-41 cells, 20 hours, neutral pH, 10-100 μg/ml
Procedure: The survival rate of cells was measured by Cell Counting Kit-8 in accordance with a manufacturer's manual. The method will be described briefly as follows. A 96-well (each 100 μl) plate was inoculated with cells (1×10^4 cells) and incubated for 24 hours, and the cells were incubated in a non-serum culture medium Opti-MEM together with a given concentration of each cathepsin purified from rat stomach (References #27 and #60-#62). Thereafter, the kit reagent (10 μl) was added to each well and the wells were incubated for another 1 hour. After incubation, each well was measured at the absorbance of 450 nm with a microplate reader.
In the figure, an indicating bar scale represents 50 μm. […] In the figure, an indicating bar scale represents 50 μm.
In this experiment, the survival rate of the ALVA-41 cells was measured by incubating the cells with cathepsin E of a given concentration in the presence or absence of pepstatin A (100 μM) at 37° C. and pH 7.4 for 20 hours. The data is represented as a percentage with respect to the value for non-treated cell group. The data were obtained as an average value±SD from the data obtained by four separate experiments. […] In this experiment, the HEK293 cells were incubated together with a given concentration of natural cathepsin E, wild-type recombinant and the active site mutant (D98A/D283A) at 37° C. and pH 7.4 for 20 hours. The survival rate of the cells was measured and represented as a percentage with respect to the value of the non-treated cell group. The data represents an average value±SD from the data obtained by four separate experiments. In the value, *p<0.001 is a corresponding value for the cells treated with the mutant. […] In this experiment, ALVA-41 cells were treated solely with cathepsin E of a given concentration in the same manner as for FIG. 2A and the culture supernatant was recovered, followed by centrifuging to remove the precipitate and transferring a portion ([…]) of the supernatant to a freshly prepared culture of ALVA-41 cells. Thereafter, the cells were incubated at 37° C. and pH 7.4 for 20 hours in the absence (black round mark) or presence (white round mark) of pepstatin A (100 μM) and measured for the survival rate of the cells. The cell survival rate is represented as a percentage with respect to the value of the cells treated with the culture supernatant of the ALVA-41 cells treated with physiological saline. The data is represented as an average value±SD from the data obtained by four separate experiments. […] The cathepsin E activity (on the upper panel) and the cytotoxic activity (on the lower panel) of each column fraction were determined using freshly prepared ALVA-41 cells and a cathepsin E-specific substrate. The cell survival rate of each fraction treated with the protein at a given final concentration is represented as a percentage with respect to the value of the cells treated with physiological saline and as an average value±SD from the data obtained by four separate experiments. The cathepsin E activity is represented as a percentage of the total activity in the culture supernatant, and the data is represented as an average±SD from the data obtained by three separate experiments.

## cathepsin E
[1]
  FasL in culture supernatant: little detected
[2]
  number of living cells: decreases the number of survived carcinoma cells in a dose-dependent fashion
